Literature values in patent publication US20080089861A1, “Combination therapy for treatment of demyelinating conditions” (priority 2006, published 2008).
Entries after “also recorded” stand apart in the source; their conditions may differ.

Conditions: human

In the case of `CC12CC3CC(C)(C1)CC(N)(C3)C2` [Memantine, 1-amino-3,5-dimethyladamantane], the “Dose Dependent Tox” value is given as “Dose escalation; also recorded: hallucination”.
